{"source": "patent US20220193047A1", "about": "“METHODS OF ENHANCING RADIOTHERAPY USING FERROPTOSIS INDUCERS AS RADIOSENSITIZERS” (THE TRUSTEES OF COLUMBIA UNIVERSITY IN THE CITY OF NEW YORK, priority 2019, published 2022)", "key": {"HT-1080 cells": {"tested_on": "HT-1080 cells", "assay": "Cell Titer Glo cell viability assay with radiation", "format": "cell-based", "settings": "HT-1080, 4 Gy radiation for 24 h", "experimental": "HT-1080 cells were plated at 1,000 cells per well in white 96-well plates (100 uL per well) in technical duplicates. The cells were then treated with vehicle (DMSO), Ferrostatin-1, DFO, Z-VAD-FMK or Necrostatin-1S and incubated overnight. […] After another 24 h, 100 uL of 50% Cell Titer Glo (Promega) 50% cell culture medium was added to each well and incubated at room temperature with shaking for 15 min. Luminescence was measured using a Victor X5 plate reader (PerkinElmer). Experiments were performed three independent times with different passages for each cell line."}, "[1]": {"tested_on": "TM00219 patient-derived xenograft tumors", "assay": "Patient-derived xenograft study in mice (TM00219 lung adenocarcinoma)", "format": "in vivo", "settings": "40 mg/kg i.p. daily for 14 days, NSG mice", "experimental": "The experiment was conducted according to the same protocol as the HT-1080 tumor xenograft study, with the exception that a single dose of radiation (sham or 6 Gy) was delivered to the tumor on day 1 of the experiment.\nFinally, the effect of ferroptosis-inducing system xc^− inhibitors, in combination with radiation, was tested on a patient-derived xenograft (PDX) model of lung adenocarcinoma, which is another type of cancer commonly treated with radiation therapy. NSG mice engrafted with a human lung adenocarcinoma tumor (TM00219) were evaluated."}, "[2]": {"tested_on": "reduced glutathione (GSH) in HT-1080 cells", "assay": "Reduced glutathione measurement in cells", "format": "cell-based", "settings": "HT-1080, irradiated cells (2 or 6 Gy, 24 hours) co-treated with 2 μM IKE", "experimental": "Cystine taken up by system xc^− is reduced to cysteine, a building block in the biosynthesis of glutathione. […] Using a fluorometric GSH probe, we observed that treatment with 2 or 6 Gy radiation for 24 hours depleted GSH in a dose-dependent manner in HT-1080 cells (FIG. 2E). […] Indeed, the decrease in colony formation of HT-1080 cells following 2 or 4 Gy radiation was rescued by either glutathione methyl ester or N-acetylcysteine, which is a biological precursor to glutathione (FIG. 9)."}, "[3]": {"tested_on": "MDA in HT-1080 xenograft tumor tissue", "assay": "MDA immunohistochemistry on paraffin-embedded tumor sections", "format": "in vivo, mice", "settings": "tumors resected at day 14", "experimental": "Tumor tissue was fixed in 4% paraformaldehyde (PFA) for 24 h at 4° C. followed by washing three times with PBS. The samples were fixed in paraffin. Six series of […] sections were obtained with a sliding microtome. The serial sections were then mounted on gelatin-coated slide. The paraffin-embedded tissue sections were deparaffinized with xylene three times, 5 min each, followed by rehydrating in 100%, 90%, 70%, and 50% ethanol, two washes 5 min each, then rinsed with distilled water. Antigen retrieval was performed in sodium citrate buffer, pH 6.0, 95-100° C. for 10 min. Sections were then rinsed in PBST, 2 min each. A hydrophobic barrier pen was used to draw a circle on each slide. The slides were permeabilized with PBS/0.4% Triton X-100 twice before non-specific-binding blocking by incubating the sections with 10% goat serum (ThermoFisher 50197Z) for 30 minutes at room temperature. […] All images were captured on a Zeiss LSM 700 confocal microscope with constant laser intensity for all analyzed samples. The intensity above threshold of the fluorescent signal of the bound antibodies was analyzed using NIH ImageJ software.\nNext, malondialdehyde (MDA) levels, as a biomarker for ferroptosis, were measured in tumor tissue using immunohistochemistry on fixed and paraffin-embedded tumor samples resected at day 14 post-treatment (FIG. 6B)."}, "[4]": {"format": "in vivo", "settings": "40 mg/kg IKE i.p. 14 days, with or without 6 Gy radiation"}, "[5]": {"tested_on": "lipid species in HT-1080 cells", "assay": "Mass spectrometry-based untargeted lipidomics", "format": "cell-based", "method": "Homogenized samples were transferred to fresh glass tubes containing 850 mL of cold methyl-tertbutyl ether (MTBE) and vortex-mixed for 30 sec. To enhance extraction efficiency of lipids, the samples were incubated for one hour at 4° C. on an orbital shaker. Afterwards, 200 mL of cold water was added to each sample, and incubated for 20 min on ice before centrifugation at 3,000 rpm for 20 min at 4° C. The organic layer was collected followed by drying under a gentle stream of nitrogen gas on ice and stored at −80° C. until UPLC-MS analysis. The protein pellet was used to measure protein concentration for normalization using Bio-Rad protein assay. The samples were re-constituted in a solution containing 2-propanol/acetonitrile/water (4:3:1, v/v/v) containing mixture of internal standard (PLASH® LIPIDOMIX® Mass Spec Standard, Avanti Polar Lipids, INC.) for further UPLC-MS analysis. A quality control (QC) sample was prepared by combining 40 mL of each sample to assess the reproducibility of the features through the runs.\nChromatographic separation of extracted lipids was carried out at 55° C. on ACQUITY UPLC CSH C18 Column, (130 Å, 1.7 μm, 2.1 mm×100 mm) over a 20-min gradient elution. Mobile phase A consisted of ACN/water (60:40, v/v) and mobile phase B was 2-propanol/ACN/water (85:10:5, v/v/v) both containing 10 mM ammonium acetate and 0.1% acetic acid. […]"}, "HT-1080 xenograft tumors": {"tested_on": "HT-1080 xenograft tumors", "assay": "HT-1080 tumor xenograft study in mice", "settings": "40 mg/kg IKE i.p. daily for 14 days", "method": "The injections were repeated daily for 14 days. […] For the sorafenib experiment, the formulation used was 40 mg/kg sorafenib in 5% DMSO, 20% ethanol in water containing 30% w/v cyclodextrin. […] Tumor size was measured daily using calipers and mouse weight was measured daily.\nThe efficacy of the combined treatment regimen of radiation and ferroptosis inducer was evaluated in an in vivo tumor model. […] Athymic nude mice were implanted with subcutaneous HT-1080 fibrosarcoma cells to form xenograft tumors."}, "cleaved caspase-3": {"tested_on": "cleaved caspase-3", "assay": "Western blot of cleaved caspase-3", "format": "cell-based", "settings": "for Cleaved caspase-3, added to radiation: HT-1080, 6 Gy, 24 h; for Cleavage of caspase-3, compound alone: HT-1080, IKE or RSL3 24 h, staurosporine 500 nM for 6 h", "experimental": "1 million cells were seeded in 10 cm dishes and treated with compounds and/or radiation on the next day. […] After quantification by Bradford, samples were mixed with 5×SDS loading buffer and separated by SDS-polyacrylamide gel electrophoresis. After transfer, membranes were blocked for 10 min in Tris-buffered saline (pH 7.4) with 1% Tween-20 (TBS-T) with 5% milk and incubated in primary antibody overnight at 4° C. Following 3× for 5 min washes in TBS-T, the membrane was incubated with secondary antibodies for 1 hr. The membrane was washed again in TBST 3× for 5 min prior to visualization using enhanced chemiluminescence (ECL Western Blotting Substrate, Pierce). Antibody for cleaved caspase 3 (Cell Signaling Technology, #9661) was used at 1:1000 and detected using a Peroxidase AffiniPure Goat Anti-Rabbit IgG (H+L) (Jackson ImmunoResearch, 111-295-144) at 1:5000 dilution.\nDNA damage is a potent inducer of apoptosis. […] Despite this, some quantity of 17-kDa cleaved caspase-3 was still detectable in the Z-VAD-FMK-treated sample. To further check for potential radiation-induced apoptosis in this model at a later time point, we attempted to rescue the effects of radiation using 100 μM Z-VAD-FMK after 48, 72, and 96 h (FIG. 10)."}}, "data": [{"smiles": "CCOC(=O)c1ccc(NC2CCCCC2)c(N)c1", "note": "[ferrostatin-1]", "values": [{"measurement": "Cell viability after radiation (ATP-based luciferase assay)", "setting": "HT-1080 cells", "value": "rescued from death"}]}, {"smiles": "CC(C)Oc1ccc(C(=O)Cn2ccnc2)cc1-n1c(CN2CCN(C(=O)COc3ccc(Cl)cc3)CC2)nc2ccccc2c1=O", "note": "[IKE, imidazole ketone erastin]", "values": [{"measurement": "Tumor growth, combination with radiation vs all other groups", "setting": "[1]; 6 Gy on day one", "value": "significant tumor growth inhibition"}, {"measurement": "Tumor growth, drug alone vs vehicle only", "setting": "[1]", "value": "significant tumor control"}, {"measurement": "Levels of reduced glutathione", "setting": "[2]", "value": "further decreased"}, {"measurement": "MDA signal in tumors, IKE and radiation vs vehicle", "setting": "[3]", "value": "Significantly elevated MDA signal"}, {"measurement": "MDA signal in tumors, IKE only vs vehicle", "setting": "[3]", "value": "No significant differences"}, {"measurement": "Tolerability (weight loss)", "setting": "[4]", "value": "well tolerated"}, {"measurement": "Abundance of 17 lipid species (FA 16:1, lysophospholipids, diacylglycerols)", "setting": "[5]; HT-1080, 5 μM IKE for 12 h", "value": "increased significantly"}, {"measurement": "Abundance of 17 lipid species (FA 16:1, lysophospholipids, diacylglycerols)", "setting": "[5]; HT-1080, 5 μM IKE for 12 h plus 6 Gy radiation for 24 h", "value": "even larger increases"}, {"measurement": "Tumor volume, IKE plus radiation", "setting": "HT-1080 xenograft tumors; 6 Gy on days 2 and 4", "value": "enhanced the effects of radiation in reducing tumor growth"}, {"measurement": "Tumor volume, IKE alone", "setting": "HT-1080 xenograft tumors; athymic nude mice", "value": "not strongly effective"}, {"measurement": "Cleaved caspase-3, added to radiation", "setting": "cleaved caspase-3", "value": "did not further increase the amount of cleaved caspase-3"}, {"measurement": "Cleavage of caspase-3, compound alone", "setting": "cleaved caspase-3", "value": "did not induce detectable cleavage of caspase-3"}]}, {"smiles": "COC(=O)c1ccc([C@@H]2c3[nH]c4ccccc4c3C[C@@H](C(=O)OC)N2C(=O)CCl)cc1", "note": "[RSL3, Ras Synthetic Lethal 3]", "values": [{"measurement": "Cleaved caspase-3, added to radiation", "setting": "cleaved caspase-3", "value": "did not further increase the amount of cleaved caspase-3"}, {"measurement": "Cleavage of caspase-3, compound alone", "setting": "cleaved caspase-3", "value": "did not induce detectable cleavage of caspase-3"}]}]}
